We go through five compounds from ChEMBL document CHEMBL1201862, “PubChem BioAssay data set” (2004).

Test [1] deals with Beta-galactosidase (Escherichia coli, UniProt Q8VNN2). The test can be described thus: PubChem AID 485352. In kind it is functional.
For test [2], the target named is T1, Type-1 angiotensin II receptor (Homo sapiens, UniProt P30556).
T1 sequence (P30556 whole entry): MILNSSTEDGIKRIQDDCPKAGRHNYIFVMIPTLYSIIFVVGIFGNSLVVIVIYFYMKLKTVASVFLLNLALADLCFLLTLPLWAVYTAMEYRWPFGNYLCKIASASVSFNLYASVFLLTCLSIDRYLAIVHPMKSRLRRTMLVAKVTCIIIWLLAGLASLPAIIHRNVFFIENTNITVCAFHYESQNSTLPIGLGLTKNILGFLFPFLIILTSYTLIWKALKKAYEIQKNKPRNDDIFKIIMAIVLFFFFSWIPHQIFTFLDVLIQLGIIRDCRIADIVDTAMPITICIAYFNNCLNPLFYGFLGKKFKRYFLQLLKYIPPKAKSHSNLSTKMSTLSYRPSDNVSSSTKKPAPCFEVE
Nature of the test: AT1 receptor antagonists, dose response, selectivity assay for APJ receptor antagonist project, cell-based, uHTS hits (AID 463214).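 Further: antagonist potency against angiotensin II stimulated AT1 response.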 Format: functional.

The target of test [3] is DNA topoisomerase (Yersinia pestis, UniProt A0A2S9PM60). The test can be described thus: Y. pestis Topo-I inhibitors, cleavage product readout, dose response, biochemical, cherry-pick (AID 588525).
Sequence of DNA topoisomerase (A0A2S9PM60 whole entry, the tested form may be a part): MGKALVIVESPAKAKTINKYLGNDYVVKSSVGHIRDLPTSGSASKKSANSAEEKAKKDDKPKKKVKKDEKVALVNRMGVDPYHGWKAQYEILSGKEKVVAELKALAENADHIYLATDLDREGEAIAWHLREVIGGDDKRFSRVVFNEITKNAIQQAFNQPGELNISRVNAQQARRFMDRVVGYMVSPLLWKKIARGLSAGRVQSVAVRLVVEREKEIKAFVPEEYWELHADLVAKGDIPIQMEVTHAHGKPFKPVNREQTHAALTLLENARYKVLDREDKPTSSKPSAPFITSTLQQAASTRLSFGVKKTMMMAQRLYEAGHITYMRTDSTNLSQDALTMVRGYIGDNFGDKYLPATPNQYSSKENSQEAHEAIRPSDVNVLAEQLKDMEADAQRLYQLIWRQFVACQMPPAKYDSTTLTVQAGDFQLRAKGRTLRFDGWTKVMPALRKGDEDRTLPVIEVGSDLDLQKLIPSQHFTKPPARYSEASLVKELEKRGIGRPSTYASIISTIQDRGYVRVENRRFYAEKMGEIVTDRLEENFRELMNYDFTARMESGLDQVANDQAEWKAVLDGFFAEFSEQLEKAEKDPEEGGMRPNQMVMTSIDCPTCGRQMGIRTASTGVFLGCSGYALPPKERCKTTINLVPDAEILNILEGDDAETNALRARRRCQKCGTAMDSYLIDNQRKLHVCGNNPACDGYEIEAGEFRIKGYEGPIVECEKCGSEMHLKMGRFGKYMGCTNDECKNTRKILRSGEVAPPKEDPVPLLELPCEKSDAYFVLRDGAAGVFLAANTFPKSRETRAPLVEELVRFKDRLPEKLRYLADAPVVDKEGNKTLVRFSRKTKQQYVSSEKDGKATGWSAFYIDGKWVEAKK
Test [4] deals with CHO. The test can be described thus: cytotoxicity in TLR9-MyD88 CHO cells, dose response, cytotoxicity control for TLR9-MyD88 binding inhibitor project, cell-based, luminescence (AID 588339).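 Further: CHO cells stably coexpressing TLR9 and MyD88 fusions from primary screen; compound exposure lasted 48 hours before viability readout.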 In kind it is functional, hamster. The conditions noted are these: Cricetulus griseus.
Test [5] deals with Beta Lactamase (Pseudomonas aeruginosa, UniProt Q932Y6). Nature of the test: beta-lactamase reporter inhibitor potency, dose response, artefact control for TLR9-MyD88 binding inhibitor project, BLA reporter cells, FRET fluorescence (AID 588341).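 Further: cell based assay in CHO-K1 cells stably expressing beta-lactamase.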 Format: cell-based.
Sequence of Beta Lactamase (Q932Y6 whole entry): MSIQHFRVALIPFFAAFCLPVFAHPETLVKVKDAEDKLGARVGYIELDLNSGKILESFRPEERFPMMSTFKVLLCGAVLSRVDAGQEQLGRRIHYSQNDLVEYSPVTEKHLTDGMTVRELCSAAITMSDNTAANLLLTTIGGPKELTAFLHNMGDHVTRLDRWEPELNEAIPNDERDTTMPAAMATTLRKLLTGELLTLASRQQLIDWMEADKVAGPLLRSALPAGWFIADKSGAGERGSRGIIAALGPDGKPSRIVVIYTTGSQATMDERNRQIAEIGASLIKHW
A short description of test [6]: Luminescence Cell-Based Dose Response to Identify Activators of 5'UTR Stem-Loop Driven Prion Protein mRNA Translation in H4-C Neuroglioblastoma Cells. [Related pubchem assays: 1829 (Project Summary), 1814 (Primary HTS)]. In kind it is functional.
Test [7] is described as follows: Luminescence Cell-Based Dose Confirmation HTS to Identify Activators of 5'UTR Stem-Loop Driven Alpha-Synuclein mRNA Translation in H4 Neuroglioblastoma Cells. [Related pubchem assays: 1829 (Project Summary), 1814 (Primary HTS)]. In kind it is functional.
The nature of test [8]: Luminescence Cell-Based Dose Response HTS to Identify Activators of Luciferase Translation or Activity in H4 […] Cells. [Related pubchem assays: 1829 (Project Summary), 1814 (Primary HTS)]. Format: functional.
Test [9] deals with H4. The test can be described thus: Luminescence Cell-Based Dose Response HTS to Identify Activators of 5'UTR Stem-Loop Driven Prion Protein mRNA Translation in H4 Neuroglioblastoma Cells. [Related pubchem assays: 1829 (Project Summary), 1814 (Primary HTS)]. The conditions noted are these: Homo sapiens. Format: functional.
Test [10] can be described thus: Luminescence Cell-Based Dose Response to Identify Activators of Luciferase Translation or Activity in H4-C Neuroglioblastoma Cells. [Related pubchem assays: 1829 (Project Summary), 1814 (Primary HTS)]. Format: functional.
The nature of test [11]: Luminescence Cell-Based Dose Confirmation to Identify Activators of 5'UTR Stem-Loop Driven Alpha-Synuclein mRNA Translation in H4 Neuroglioblastoma Cells. [Related pubchem assays: 1829 (Project Summary), 1814 (Primary HTS)]. In kind it is functional.
Test [12] relates to HEK293. The test can be described thus: cells. In kind it is functional, cell-based. The conditions noted are these: Homo sapiens.
For test [13], the target named is T2, Nuclear receptor subfamily 0 group B member 1 (Homo sapiens, UniProt P51843).
T2 sequence (P51843 whole entry): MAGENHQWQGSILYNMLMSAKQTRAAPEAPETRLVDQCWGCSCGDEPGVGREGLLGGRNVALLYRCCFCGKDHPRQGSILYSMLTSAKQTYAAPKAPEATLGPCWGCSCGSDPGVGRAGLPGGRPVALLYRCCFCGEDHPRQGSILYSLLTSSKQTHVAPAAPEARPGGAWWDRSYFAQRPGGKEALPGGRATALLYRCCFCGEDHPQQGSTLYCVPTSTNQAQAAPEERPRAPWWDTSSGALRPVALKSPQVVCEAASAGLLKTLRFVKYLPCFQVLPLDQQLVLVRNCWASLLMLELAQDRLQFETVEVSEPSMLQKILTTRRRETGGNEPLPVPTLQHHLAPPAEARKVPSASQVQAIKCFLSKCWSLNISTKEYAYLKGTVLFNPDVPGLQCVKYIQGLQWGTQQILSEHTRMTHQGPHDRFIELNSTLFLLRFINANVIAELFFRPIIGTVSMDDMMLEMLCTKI
The test can be described thus: Luminescence-based cell-based high throughput dose response assay for inhibitors of the orphan nuclear receptor subfamily 0, group B, member 1 (DAX1; NR0B1). [Related pubchem assays (depositor defined):AID504766, AID504790]. In kind it is functional.

Test [14] can be described thus: HepG2 cell cytotoxicity, dose response, cytotoxicity control, ATP luminescence, cherry-pick, activator set 2 (AID 1053143). In kind it is functional, cell-based.
The target in test [15] is Large T antigen (Simian virus 40, UniProt P03070). In kind it is functional, Betapolyomavirus macacae.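 Further: Confirmatory-stage PubChem screen for compounds that inhibit SV40 T antigen.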
Sequence of Large T antigen (P03070 whole entry): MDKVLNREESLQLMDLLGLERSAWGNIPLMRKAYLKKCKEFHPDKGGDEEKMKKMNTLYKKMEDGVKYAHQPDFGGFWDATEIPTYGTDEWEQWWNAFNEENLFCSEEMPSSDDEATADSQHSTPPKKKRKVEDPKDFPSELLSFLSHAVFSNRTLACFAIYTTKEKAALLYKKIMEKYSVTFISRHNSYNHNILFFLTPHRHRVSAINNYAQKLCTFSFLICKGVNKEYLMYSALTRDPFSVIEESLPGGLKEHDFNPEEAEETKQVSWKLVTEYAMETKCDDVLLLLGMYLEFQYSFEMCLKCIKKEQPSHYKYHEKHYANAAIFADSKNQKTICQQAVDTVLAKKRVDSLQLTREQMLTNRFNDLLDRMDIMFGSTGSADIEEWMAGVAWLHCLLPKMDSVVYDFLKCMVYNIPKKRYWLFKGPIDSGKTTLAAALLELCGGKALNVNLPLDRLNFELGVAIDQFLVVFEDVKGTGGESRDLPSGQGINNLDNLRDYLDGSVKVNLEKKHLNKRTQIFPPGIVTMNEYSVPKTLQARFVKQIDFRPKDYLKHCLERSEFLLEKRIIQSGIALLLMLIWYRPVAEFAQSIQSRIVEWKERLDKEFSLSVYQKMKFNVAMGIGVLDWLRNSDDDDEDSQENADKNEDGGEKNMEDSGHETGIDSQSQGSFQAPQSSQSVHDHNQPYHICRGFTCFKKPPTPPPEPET
The target in test [16] is Dual specificity tyrosine-phosphorylation-regulated kinase 1A (Rattus norvegicus, UniProt Q63470). Format: biochemical, Homo sapiens.
Test [17] has as its target T3, Rac GTPase-activating protein 1 (Homo sapiens, UniProt Q9H0H5).
T3 sequence (Q9H0H5 whole entry): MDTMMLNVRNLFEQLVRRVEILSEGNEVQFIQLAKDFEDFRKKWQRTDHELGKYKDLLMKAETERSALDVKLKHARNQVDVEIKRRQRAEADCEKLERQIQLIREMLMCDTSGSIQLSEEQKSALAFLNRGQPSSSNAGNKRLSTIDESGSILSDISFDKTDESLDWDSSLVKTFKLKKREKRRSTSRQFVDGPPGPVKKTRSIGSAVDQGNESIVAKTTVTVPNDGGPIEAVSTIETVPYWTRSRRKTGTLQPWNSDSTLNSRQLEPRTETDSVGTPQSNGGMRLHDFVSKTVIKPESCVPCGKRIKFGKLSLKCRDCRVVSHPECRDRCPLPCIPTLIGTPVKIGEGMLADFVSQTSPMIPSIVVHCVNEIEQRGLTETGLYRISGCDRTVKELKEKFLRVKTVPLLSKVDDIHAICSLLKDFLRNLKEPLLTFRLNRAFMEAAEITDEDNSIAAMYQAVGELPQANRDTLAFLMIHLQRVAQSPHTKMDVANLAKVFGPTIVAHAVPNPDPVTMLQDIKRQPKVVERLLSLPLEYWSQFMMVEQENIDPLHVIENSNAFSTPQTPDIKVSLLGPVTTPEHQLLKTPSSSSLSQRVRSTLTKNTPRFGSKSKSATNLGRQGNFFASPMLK
Nature of the test: MgcRacGAP GTPase-activating activity inhibitors, confirmation, biochemical, ADP Hunter fluorescence, primary and confirmatory (AID 624330). Format: functional.

Each structure is given as a SMILES string. Calls of active or inactive are those of the source.

Sequence of Beta-galactosidase (Q8VNN2 whole entry): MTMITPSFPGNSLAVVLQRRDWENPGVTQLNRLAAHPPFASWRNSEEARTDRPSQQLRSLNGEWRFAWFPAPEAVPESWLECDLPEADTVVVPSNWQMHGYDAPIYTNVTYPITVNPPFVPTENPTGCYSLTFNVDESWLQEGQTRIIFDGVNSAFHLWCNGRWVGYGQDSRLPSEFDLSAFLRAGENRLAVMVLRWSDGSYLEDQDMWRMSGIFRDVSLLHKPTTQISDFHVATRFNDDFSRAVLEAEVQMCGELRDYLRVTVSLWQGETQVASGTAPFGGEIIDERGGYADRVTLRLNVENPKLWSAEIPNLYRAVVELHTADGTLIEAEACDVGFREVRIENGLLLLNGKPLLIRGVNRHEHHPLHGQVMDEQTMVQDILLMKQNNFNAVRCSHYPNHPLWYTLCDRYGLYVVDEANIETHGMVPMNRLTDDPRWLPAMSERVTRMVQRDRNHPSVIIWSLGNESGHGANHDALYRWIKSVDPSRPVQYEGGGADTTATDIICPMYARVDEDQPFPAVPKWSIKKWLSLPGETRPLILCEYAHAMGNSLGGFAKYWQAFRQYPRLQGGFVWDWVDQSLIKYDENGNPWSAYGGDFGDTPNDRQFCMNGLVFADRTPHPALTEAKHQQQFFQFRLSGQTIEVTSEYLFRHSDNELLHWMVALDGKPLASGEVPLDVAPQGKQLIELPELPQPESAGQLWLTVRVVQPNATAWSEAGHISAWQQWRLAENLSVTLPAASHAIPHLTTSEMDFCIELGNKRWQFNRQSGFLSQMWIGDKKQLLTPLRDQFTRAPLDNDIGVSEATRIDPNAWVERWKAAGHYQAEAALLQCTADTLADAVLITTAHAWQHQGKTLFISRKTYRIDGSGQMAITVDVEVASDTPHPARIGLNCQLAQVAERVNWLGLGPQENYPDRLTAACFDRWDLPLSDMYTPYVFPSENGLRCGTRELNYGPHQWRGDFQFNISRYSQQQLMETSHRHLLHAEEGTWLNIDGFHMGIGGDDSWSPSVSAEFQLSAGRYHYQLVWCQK

With `CN1/C(=c2/s/c(=C3/C(=O)N(c4ccccc4)N=C3Nc3ccccc3)n(C)c2=O)C(C)(C)c2ccccc21`, in test [1], the EC50 (in general, the concentration that produces a half-maximal response) is 39.9 µM (active). Also, in test [2], the IC50 (as a rule, the concentration at which inhibition is half-maximal) is recorded as 27 µM (not active).

As for `Cc1ccc(-n2c(C)cc(C(=O)Cn3nc(C(=O)O)c4ccccc4c3=O)c2C)cc1`, the AC50 (in general, the concentration giving half of the maximal activity seen) in test [3] is 5.3 µM (active).

`O=C(C1=NN(c2ccccc2)C2C(=O)N(c3ccc(Cl)cc3)C(=O)C12)c1ccccc1` (configuration not stated): the IC50 in test [4] is > 49.7 µM (inactive); in test [5] it was 11.8 µM (inactive).

On to `O=C(Nc1ncccc1O)c1ccc2c(c1)OCCO2`, for which the EC50 in [6] is 7.24 µM (active); in test [7] it was 0.185 µM (active); in test [8], 0.155 µM (active); in test [9], 0.139 µM (active); in [10], > 12 µM (not active); in test [11], 0.329 µM (active). Also, the half-inhibitory concentration (IC50) in [12] is 1.59 µM (active); in test [13], > 67.5 µM (inactive). In addition, the AC50 in test [14] is 12 µM (active).

As for `C=CCSC1=NC(=O)/C(=C/c2cccs2)S1`, the IC50 was 40.8 µM (active) in [15] and 29.7 µM (active) in test [17]. For the same compound, in [16], the AC50 is 8.3 µM (active).
